{"source": "patent US20090042949A1", "about": "“Indoles Useful in the Treatment of Inflammation” (priority 2005, published 2009)", "biological_target": "T1, mPGES-1 (Homo sapiens, UniProt O14684)", "T1 construct": "made in house; host or cells: E. coli", "T1 sequence (O14684 1-152)": "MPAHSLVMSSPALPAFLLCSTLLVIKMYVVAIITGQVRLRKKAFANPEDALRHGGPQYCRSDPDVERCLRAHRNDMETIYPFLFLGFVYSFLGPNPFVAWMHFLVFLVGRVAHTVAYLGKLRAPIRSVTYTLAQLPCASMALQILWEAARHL", "test": "mPGES-1 biological test (conversion of PGH2 to PGE2, HPLC analysis)", "format": "biochemical", "conditions": "mPGES-1 expressed in E. coli, membrane fraction; 25 min preincubation with inhibitor, 60 s with PGH2, room temperature", "protocol": "In the assay mPGES-1 catalyses the reaction where the substrate PGH2 is converted to PGE2. mPGES-1 is expressed in E. coli and the membrane fraction is dissolved in 20 mM NaPi-buffer pH 8.0 and stored at −80° C. In the assay mPGES-1 is dissolved in 0.1 M KPi-buffer pH 7.35 with 2.5 mM glutathione. The stop solution consists of H2O/MeCN (7/3), containing FeCl2 (25 mM) and HCl (0.15 M). The assay is performed at room temperature in 96-well plates. Analysis of the amount of PGE2 is performed with reversed phase HPLC (Waters 2795 equipped with a 3.9×150 mm C18 column). The mobile phase consists of H2O/MeCN (7/3), containing TFA (0.056%), and absorbance is measured at 195 nm with a Waters 2487 UV-detector.\nThe following is added chronologically to each well: • 1. 100 μL mPGES-1 in KPi-buffer with glutathione. Total protein concentration: 0.02 mg/mL. • 2. 1 μL inhibitor in DMSO. Incubation of the plate at room temperature for 25 minutes. • 3. 4 μL of a 0.25 mM PGH2 solution. Incubation of the plate at room temperature for 60 seconds. • 4. 100 μL stop solution. • 180 μL per sample is analyzed with HPLC.", "data": [{"compound": "CC(C)(C)c1ccc(-c2ccc3c(c2)cc(C(=O)NCCS(=O)(=O)O)n3-c2ccc(OC3CCCC3)cc2)cc1", "note": "[Example 2, 2-{[5-(4-tert-Butylphenyl)-1-(4-cyclopentyloxyphenyl)indole-2-carbonyl]-amino}ethanesulfonic acid]", "values": [{"measurement": "IC50", "value": 660, "unit": "nM"}]}, {"compound": "CC(C)(C)c1ccc(-c2ccc3c(c2)cc(C(=O)NCC(=O)O)n3-c2ccc(OC3CCCC3)cc2)cc1", "note": "[Example 4, {[5-(4-tert-Butylphenyl)-1-(4-cyclopentyloxyphenyl)indole-2-carbonyl]-amino}acetic acid]", "values": [{"measurement": "IC50", "value": 1900, "unit": "nM"}]}, {"compound": "CN(CC(=O)O)C(=O)c1cc2cc(-c3ccc(C(C)(C)C)cc3)ccc2n1-c1ccc(OC2CCCC2)cc1", "note": "[Example 5, {[5-(4-tert-Butylphenyl)-1-(4-cyclopentyloxyphenyl)indole-2-carbonyl]-methylamino}acetic acid]", "values": [{"measurement": "IC50", "value": 740, "unit": "nM"}]}, {"compound": "CC(C)(C)c1ccc(-c2ccc3c(c2)cc(C(=O)Nn2cnnc2)n3-c2ccc(OC3CCCC3)cc2)cc1", "note": "[Example 12, 5-(4-tert-Butylphenyl)-1-(4-cyclopentyloxyphenyl)indole-2-carboxylic acid[1,2,4]triazol-4-ylamide]", "values": [{"measurement": "IC50", "value": 550, "unit": "nM"}]}, {"compound": "CC(C)Oc1ccc(-n2c(C(=O)NS(C)(=O)=O)c(Cl)c3cc(-c4ccc(C(F)(F)F)cn4)ccc32)cc1", "note": "[Example 13, N-[3-Chloro-1-(4-isopropoxyphenyl)-5-(5-trifluoromethylpyridin-2-yl)indole-2-carbonyl]methanesulfonamide]", "values": [{"measurement": "IC50", "value": 2700, "unit": "nM"}]}]}
